Measured values from patent publication US9896711B2, “Fluorogenic or fluorophoric compounds and uses thereof” (3M INNOVATIVE PROPERTIES COMPANY, priority 2011, dated 2018).
Like-named read-outs stand apart in the source and are kept apart here.

Columns and labels:
[1] = see Bioorg. and Med. Chem. Lett., 8, 3107-3110 (1998); cited from earlier work
[2] = physchem; details: 100 mM phosphate buffer in a 96 well plate, pH 8
Procedure: A 96 well plate was prepared with each well containing 100 microliters of 100 mM phosphate buffer at pH values ranging from 8.0 to 2.5 in 0.5 unit increments. […] A set of 10× diluted wells were also prepared to eliminate artifacts due to self-quenching of the fluorophore at high concentrations. The 10× dilutions were prepared by diluting the 1 mg/mL solution to 0.1 mg/mL in DMSO, and then adding 10 microliters of this solution to 100 microliters of 100 mM phosphate buffer in each of the wells.
The absorption spectra from 250 nanometers (nm) to 500 nm were recorded using a SPECTRAMAX M5 fluorescence plate reader (available from Molecular Devices of Sunnyvale Calif.) for each pH value.
Emission spectra at wavelengths from 410 nm to 700 nm were also recorded on the SPECTRAMAX M5 fluorescence plate reader at an excitation wavelength of 400 nm over the range of pH values in the plate. […]
The absorption at 400 nm and emission at 450 nm over the range of pH values were recorded on a SPECTRAMAX M5 fluorescence plate reader. […]
The absorption spectra from 300 nanometers (nm) to 700 nm were recorded for the 10× diluted wells using a SPECTRAMAX M5 fluorescence plate reader (available from Molecular Devices of Sunnyvale Calif.) for each pH value. […]

[3] = system: Escherichia coli (ATCC 29425); assay: Detection of microbial colonies on bacterial culture plates by fluorescence imaging; type: cell-based; details: for time after which colonies were apparent in the images: Plates 8-1 and C-1, 200 nM, with MX-180 particles, about 20° C. to 27° C.; for mean fluorescence intensity of colonies over time: Plates 8-1 and C-1, averaged across 6 colonies, 30 seconds fluorescent illumination
Procedure: A mixture of 50 grams of xanthan gum powder and 50 grams of locust bean gum powder was placed in a 500 mL bottle and shaken manually for about 5 minutes. A cover film was prepared by sprinkling the mixture onto the adhesive of a pressure-sensitive adhesive coated sheet that is commercially available under the trade designation 9795R ADVANCED SEALING TAPE from 3M Company in St. Paul Minn. The adhesive coated sheet was tilted to remove excess powder. The coating weight of the gums was approximately 85 milligrams per 24 square inches (i.e, 0.55 milligrams per square centimeter).
A growth medium mixture was prepared by mixing 22.8 parts of pancreatic digest of casein, 15.9 parts of yeast extract, 45.5 parts of sodium pyruvate, 4.1 parts of dextrose, 9.0 parts of dibasic potassium phosphate, and 2.8 parts of monobasic potassium phosphate. A growth medium broth was prepared by mixing 500 mL of deionized water with 14.78 grams of the growth medium mixture in a beaker using an air motor mixer followed by adding 5 grams of locust bean gum in small increments, and mixing for several minutes. The beaker was covered with foil and the mixture was heated to 80° C., mixed for about 6 minutes, and then allowed to cool for about ten minutes while mixing without heat. The broth was then poured into a sterilized beaker, covered with a plastic bag and refrigerated. The cooled broth was stirred carefully with a spatula to avoid forming air bubbles and then knife coated onto a 24.4 cm wide sheet of 4 mil thick polyethylene terephthalate film that is commercially available under the trade designation MELINEX 453 from DuPont Teijin Films in Hopewell Va. The broth coated film was dried in an oven set at a temperature of 210° C. for about 10 minutes. The dried coating weight was about 1 mg per square centimeter.
A 20.3 centimeter (cm) wide sheet of 4 mil (a mil is equal to 0.001 inches) thick closed cell polystyrene foam (commercially available from American Fuji Seal, Inc. of Bardstown, Ky.) was laminated to a pressure-sensitive adhesive transfer tape on a release liner. The specific transfer tape used has an acrylic pressure-sensitive adhesive and is commercially available from 3M Company (Saint Paul, Minn.) under the trade designation 3M […] ADHESIVE 927. Circular discs measuring 5 cm in diameter were die-cut and removed from the laminate, forming circular openings centered within a 7.6 cm square from one end of 7.6 cm by 10.16 cm rectangle. The liner was removed and the adhesive-coated surface of the polystyrene foam was adhered to the broth coated film to provide a base member having a broth-coated self-supporting substrate and a hydrophobic spacer element (i.e., “foam dam”) adhered to the broth-coated surface of the supporting substrate. Rectangular plates measuring 7.6 cm by 10.16 cm were cut from the laminate, with the circular openings centered within a 7.6 cm square on one end of the 10.16 cm length. The cover film was attached to the base member with the powder coated side facing the foam dam with a double sided pressure-sensitive adhesive tape to form a culture plate.
For Example 8, an indicator solution was prepared by dissolving FTU-gal from Example 6 in DMSO at a 50 mM (millimolar) concentration (Indicator 1). The solution was further diluted 20-fold to provide a 2.5 mM solution (Indicator 2).
For Comparative Example C1, indicator solutions were prepared by dissolving TU-gal in DMSO at a 20 mM concentration (Indicator 3). […]

[4] = system: β-D-galactosidase; assay: Emission of fluorogenic galactoside at pH 2.5 to 8.0 in the presence and absence of β-D-galactosidase; type: biochemical; details: FIG. 6; emission 495 nm, excitation 430 nm, pH 5 to 7, with β-D-galactosidase; about two-thirds of sample fluorinated
Procedure: Absorbance and emission spectra for the first fraction of FTU-gal was recorded at pH 2.5 to 8.0 in the presence and absence of β-D-galactosidase, and then compared to spectra of TU-gal (prepared according to U.S. Pat. No. 6,566,508 (Bentsen et al.) under the same conditions.
About two-thirds of the sample tested was fluorinated.

Cc1cc(=O)oc2c(F)c(O)c(F)cc12 [6,8-difluoro-4-methyl-7-hydroxycoumarin]
pKa [1]: 4.2

CCOC(=O)c1cc2cc(F)c(O)cc2oc1=O [6-FEHC, 6-fluoro-3-ethylcarboxylate-7-hydroxycoumarin]
pKa [2]: ~4.5

CCOC(=O)c1cc2ccc(O)cc2oc1=O [EHC, 3-ethylcarboxylate-7-hydroxycoumarin, reference compound]
pKa [2]: ~6.5

O=c1oc2cc(O[C@@H]3O[C@H](CO)[C@H](O)[C@H](O)[C@H]3O)ccc2cc1-c1cccs1 [TU-gal, 3-thienylumbelliferone-pyanogalactoside, reference compound]
time after which colonies were apparent in the images [3]: 14 h
mean fluorescence intensity of colonies over time [3]: tended to plateau over time

fluorinated 3-thienylumbelliferone-pyranogalactoside [FTU-gal]
enhancement in intensity versus TU that is not fluorinated [4]: more than 2 fold
time after which colonies were apparent in the images [3]: 14 h
mean fluorescence intensity of colonies over time [3]: continued to increase
signal to noise (background) ratio over time ([3]; Plates 8-1 and C-1, six colonies and six background spots): always higher
